Test results published in patent US6403601B1, “N-(2-phenyl-4-piperidinybutyl)-5,6,7,8-tetrahydro-1-naphthalenecarboxamides and their use as neurokinin 1 (NK1) and/or neurokinin 2 (NK2) receptor antagonists” (Astrazeneca AB, priority 1998, dated 2002).

Columns and labels:
NK2 = biological target: T1, NK2 (Oryctolagus cuniculus, UniProt P79218); assay: Rabbit Pulmonary Artery: NK2 In Vitro Functional Assay (Test D); assay type: cell-based; settings: agonist BANK; -log molar KB; read-out: Rabbit Pulmonary Artery NK2 pKb (Test D) (converted)
T1 construct: The pulmonary arteries are isolated from the rest of the tissues, then rubbed over an intimal surface to remove the endothelium; from tissue; host or cells: rabbit pulmonary artery rings, endothelium removed
T1 sequence (P79218 1-384): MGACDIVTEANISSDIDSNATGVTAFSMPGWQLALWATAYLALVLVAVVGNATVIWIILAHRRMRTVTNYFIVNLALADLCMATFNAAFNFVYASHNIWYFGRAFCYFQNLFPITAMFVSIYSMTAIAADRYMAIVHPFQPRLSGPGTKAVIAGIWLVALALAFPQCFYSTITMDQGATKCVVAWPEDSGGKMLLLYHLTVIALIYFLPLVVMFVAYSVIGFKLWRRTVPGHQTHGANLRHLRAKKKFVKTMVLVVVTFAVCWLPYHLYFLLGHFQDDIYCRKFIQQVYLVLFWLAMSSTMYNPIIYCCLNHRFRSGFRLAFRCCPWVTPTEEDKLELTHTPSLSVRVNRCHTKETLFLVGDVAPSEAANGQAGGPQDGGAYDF
Method: NK2 In Vitro Functional Assay (Test D)
The ability of a Compound of the invention to antagonize the action of the agonist [β-ala^8] […] Male New Zealand white rabbits are euthanized via i.v. injection into an ear vein with 60 mg/kg Nembutal (50 mg/mL). Preceding the Nembutal into the vein is Heparin (1000 units/mL) at 0.0025 mL/kg for anticoagulant purposes. The chest cavity is opened from the top of the rib cage to the stemum and a small incision is made into the heart so that the left and right pulmonary arteries can be cannulated with polyethylene tubing (PE260 and PE190 respectively). […] Responses are measured on a Grass polygraph via Grass FT-03 transducers and the electrical signals (data) acquired using a Mi^2 software/hardware system for subsequent conversion to measures of contraction. […]
For non-competitive antagonists, the percent inhibition of contraction is determined at a given concentration of the antagonist Percent inhibition is determined when a tested Compound produces a statistically significant (p<0.05) reduction of the total contraction which is calculated using the total contraction as a percent of the control value. Potencies of competitive Compounds are determined by calculating the apparent dissociation constants (KB) for each concentration tested using the standard equation: […]

NK1 = biological target: T2, NK1 (Oryctolagus cuniculus, UniProt G1SEI7); assay: Rabbit Pulmonary Artery: NK1 In Vitro Functional Assay (Test C); assay type: cell-based; settings: agonist ASMSP
T2 construct: The pulmonary arteries are isolated from the rest of the tissues and cut in half to serve as pairs; from tissue; host or cells: rabbit pulmonary artery rings, endothelium intact
T2 sequence (G1SEI7 1-407): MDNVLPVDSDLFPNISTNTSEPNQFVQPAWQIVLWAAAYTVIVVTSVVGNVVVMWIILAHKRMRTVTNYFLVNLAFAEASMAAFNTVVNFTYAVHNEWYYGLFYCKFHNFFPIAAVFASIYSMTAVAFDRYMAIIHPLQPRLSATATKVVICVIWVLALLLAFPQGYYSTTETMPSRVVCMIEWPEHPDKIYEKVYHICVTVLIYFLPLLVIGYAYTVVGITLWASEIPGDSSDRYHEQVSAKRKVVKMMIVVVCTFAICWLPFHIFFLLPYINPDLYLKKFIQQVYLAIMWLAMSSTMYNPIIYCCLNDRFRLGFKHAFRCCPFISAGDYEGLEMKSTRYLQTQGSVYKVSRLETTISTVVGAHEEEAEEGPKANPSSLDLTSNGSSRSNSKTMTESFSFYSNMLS
Method: Rabbit Pulmonary Artery: NK1 In Vitro Functional Assay (Test C)
The ability of a Compound of the invention to antagonize the action of the agonist Ac-[Arg^6, Sar^9, Met(O2)^11]
Male New Zealand white rabbits are euthanized via i.v. injection into an ear vein with 60 mg/kg Nembutal (50 mg/mL). Preceding the Nembutal into the vein is Heparin (1000 units/mL) at 0.0025 ml/kg for anticoagulant purposes. The chest cavity is opened from the top of the rib cage to the sternum and the heart, lungs and part of the trachea are removed. The pulmonary arteries are isolated from the rest of the tissues and cut in half to serve as pairs.
The segments are suspended between stainless steel stirrups, so as not to remove any of the endothelium, and placed in water-jacketed (37° C.) tissue baths containing physiological salt solution of the following composition (mM): NaCl, 118.0; KCl, 4.7; CaCl2, 1.8; MgCl2, 0.54; NaH2PO4, 1.0; NaHCO3, 25.0; glucose, 11.0; indomethacin, 0.005(to inhibit cyclooxygenase); and dl-Propranolol, 0.00l(to block β receptors); gassed continuously with 95% O2-5% CO2. Responses are measured on a Grass polygraph via Grass FT-03 transducers and the electrical signals (data) acquired using a Mi^2 software/hardware system for subsequent conversion to measures of relaxation. […]

NK1 receptors = biological target: T3, NK1 receptors (Cavia porcellus, UniProt P30547); assay: NK1 In Vivo Functional Assay (Test E), agonist-induced bronchoconstriction in anesthetized guinea pigs; parameters: species or system guinea pig; settings: 120 minutes prior to agonist ASMSP, Dose Ratio of ED50 in presence/absence of antagonist
T3 construct: from tissue; host or cells: whole anesthetized guinea pig (airways)
T3 sequence (P30547 whole entry): as the sequence (G1SEI7 1-407) above, with S176G, E186S, G329A, L342F, E368D, A369P, N376T, M395V, F399S counted along it
Method: NK1 and NK2 In Vivo Functional Assay (Test E)
Exp. Ther., 1993, Vol 267(3), pp 1168-1175. The assay is carried out as follows.
Compounds are tested in anesthetized guinea pigs pretreated with i.v. indomethacin (10 mg/kg, 20 min.), propranolol (0.5 mg/kg, 15 min.), and thiorphan (10 mg/kg, 10 min).
Antagonists or vehicle are administered i.v. and orally, 30 and 120 minutes prior to increasing concentrations of agonist, respectively. The agonists used in these studies are ASMSP (Ac-[Arg^6,Sar^9,Met(O2)^11]-SP(6-11)) and BANK (β-ala-8 NKA4-10).
Administered i.v., ASMSP is selective for NK1 receptors, and BANK is selective for NK2 receptors. Maximum response is defined as zero conductance (GL, 1/Rp). ED50 values are calculated (the dose of agonist resulting in a reduction of GL to 50% of baseline), and converted to the negative logarithm (−logED50). The ED50 values, obtained in the presence (P) and absence (A) of antagonist, are used to calculate a Dose Ratio (P/A), an expression of potency. Data are expressed as mean±SEM and statistical differences were determined using ANOVA/Tukey-Kramer and Student's t-test , with p<0.05 considered statistically significant.

Row | Structure (SMILES) | Kb (NK2) | inhibition at 0.01 µM (NK1; inhibition of relaxation at 10^−8 M) | Oral Activity (Test E) NK1 P/A (NK1 receptors) | Kb (NK1; -log molar KB, read-out: Rabbit Pulmonary Artery NK1 pKb (Test C) (converted))
1 | COc1c(C#N)cc2c(c1C(=O)N(C)C[C@@H](CCN1CCC(c3ccccc3[S@+](C)[O-])CC1)c1ccc(Cl)c(Cl)c1)CCCC2 [Example 5, N-[(S)-2-(3,4-Dichlorophenyl)-4-[4-[(S)-2-methylsulfinylphenyl]-1-piperidinyl]butyl]-N-methyl-3-cyano-2-methoxy-5,6,7,8-tetrahydro-1-naphthamide] | 79.4 nM | 74% | 454 | 
2 | CN(C[C@@H](CCN1CCC(c2ccccc2[S@+](C)[O-])CC1)c1ccc(Cl)c(Cl)c1)C(=O)c1cc(C#N)cc2c1CCCC2 [Example 6, N-[2-(S)-(3,4-Dichlorophenyl)4-[-4-[(S)-2-(methylsulfinyl)phenyl]-1-piperidinyl]butyl]-N-methyl-3-cyano-5,6,7.8-tetrahydro-1-naphthamide] | 25.1 nM |  | 147 | 5.01 nM
